Laboratory results from PubChem BioAssay AID330 (DTP/NCI, 2004).
Values joined by “and” are separate entries in the source; they are usually repeats but may differ in a detail not shown here. Equal values may be shown once. Toxic doses and inconclusive results are not listed.

Tested on: P388 leukemia ip, CD2F1 mice, survival T/C
Experiment: NCI In Vivo Anticancer Drug Screen. Data for tumor model P388 Leukemia (intraperitoneal) in CD2F1 (CDF1) mice
Conditions: endpoint: median survival time, higher = longer survival
In short: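 Mice carrying the transplanted tumor received test compound or vehicle. Survival was recorded in each group, and the value is the treated-group measurement divided by that of the vehicle-treated control group.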

[1] = dose: 50.0 mg/kg/injection, schedule: Q01DX009 (ip), vehicle: saline
[2] = dose: 100.0 mg/kg/injection, schedule: Q01DX009 (ip), vehicle: saline
[3] = dose: 200.0 mg/kg/injection, schedule: Q01DX009 (ip), vehicle: saline
[4] = dose: 50.0 mg/kg/injection, schedule: Q01DX005 (ip), vehicle: saline with Tween-80
[5] = dose: 100.0 mg/kg/injection, schedule: Q01DX005 (ip), vehicle: saline with Tween-80
[6] = dose: 50.0 mg/kg/injection, schedule: Q01DX009 (ip), vehicle: Klucel (hydroxypropylcellulose) (HPC)

COc1c(C)[nH]ccc1=O
T/C (dose: 12.5 mg/kg/injection, schedule: Q01DX009 (ip), vehicle: saline): 102 % of control and 105 % of control
T/C (dose: 25.0 mg/kg/injection, schedule: Q01DX009 (ip), vehicle: saline): 101 % of control and 103 % of control
T/C [1]: 99 % of control and 102 % of control
T/C [2]: 99 % of control and 105 % of control
T/C [3]: 104 % of control and 107 % of control
T/C (dose: 400.0 mg/kg/injection, schedule: Q01DX009 (ip), vehicle: saline): 104 % of control and 106 % of control

CC([NH-])C[NH-].[I][Pt+2][I] (stereo unspecified)
T/C (dose: 100.0 mg/kg/injection, schedule: Q04DX002 (ip), vehicle: saline with Tween-80): 154 % of control and 151 % of control

O=C(c1ccccc1)c1ccc2n[se]nc2c1
T/C (dose: 3.75 mg/kg/injection, schedule: Q01DX005 (ip), vehicle: saline with Tween-80): 100 % of control
T/C (dose: 7.5 mg/kg/injection, schedule: Q01DX005 (ip), vehicle: saline with Tween-80): 87 % of control
T/C (dose: 15.0 mg/kg/injection, schedule: Q01DX005 (ip), vehicle: saline with Tween-80): 97 % of control

COc1ccc2c(c1)CCC1C2=CCC2C(=O)OC(=O)C21C (stereo unspecified)
T/C [4]: 103 % of control
T/C [5]: 108 % of control

CCOc1ccc(-n2c(C)c(COC(=O)NC)c(COC(=O)NC)c2C)cc1
T/C (dose: 12.5 mg/kg/injection, schedule: Q01DX009 (ip), vehicle: Klucel (hydroxypropylcellulose) (HPC)): 152 % of control and 166 % of control
T/C (dose: 25.0 mg/kg/injection, schedule: Q01DX009 (ip), vehicle: Klucel (hydroxypropylcellulose) (HPC)): 150 % of control
T/C [6]: 109 % of control

CC(=O)Nc1c2ccccc2nc2ccccc12
T/C [4]: 95 % of control
T/C [5]: 91 % of control
T/C (dose: 200.0 mg/kg/injection, schedule: Q01DX005 (ip), vehicle: saline with Tween-80): 94 % of control

CSCCC(N)C(=O)NCCS(=O)(=O)O (stereo unspecified)
T/C (dose: 60.0 mg/kg/injection, schedule: Q01DX005 (ip), vehicle: saline): 105 % of control
T/C (dose: 120.0 mg/kg/injection, schedule: Q01DX005 (ip), vehicle: saline): 109 % of control
T/C (dose: 240.0 mg/kg/injection, schedule: Q01DX005 (ip), vehicle: saline): 102 % of control

O=c1oc2ccccc2c2c1cnn2-c1ccccc1
T/C (dose: 60.0 mg/kg/injection, schedule: Q01DX005 (ip), vehicle: Klucel (hydroxypropylcellulose) (HPC)): 103 % of control
T/C (dose: 120.0 mg/kg/injection, schedule: Q01DX005 (ip), vehicle: Klucel (hydroxypropylcellulose) (HPC)): 105 % of control
T/C (dose: 240.0 mg/kg/injection, schedule: Q01DX005 (ip), vehicle: Klucel (hydroxypropylcellulose) (HPC)): 104 % of control

Clc1cccc2nc(-c3ccccn3)n(CCc3ccncc3)c12
T/C (dose: 25.0 mg/kg/injection, schedule: Q01DX005 (ip), vehicle: Klucel (hydroxypropylcellulose) (HPC)): 95 % of control
T/C (dose: 50.0 mg/kg/injection, schedule: Q01DX005 (ip), vehicle: Klucel (hydroxypropylcellulose) (HPC)): 95 % of control
T/C (dose: 100.0 mg/kg/injection, schedule: Q01DX005 (ip), vehicle: Klucel (hydroxypropylcellulose) (HPC)): 95 % of control
T/C (dose: 200.0 mg/kg/injection, schedule: Q01DX005 (ip), vehicle: Klucel (hydroxypropylcellulose) (HPC)): 93 % of control

COc1ccc(CSC(=S)Nc2ccc(Cl)cc2Cl)cc1
T/C [1]: 106 % of control
T/C [2]: 105 % of control
T/C [3]: 99 % of control

O=C(OCC#CCOC(=O)C(Cl)Cl)C(Cl)Cl
T/C (dose: 100.0 mg/kg/injection, schedule: Q04DX003 (ip), vehicle: saline with Tween-80): 108 % of control
T/C (dose: 200.0 mg/kg/injection, schedule: Q04DX003 (ip), vehicle: saline with Tween-80): 104 % of control
T/C (dose: 400.0 mg/kg/injection, schedule: Q04DX003 (ip), vehicle: saline with Tween-80): 100 % of control

CCOC(=O)Nc1ccc2nc(-c3cscn3)[nH]c2c1
T/C [1]: 101 % of control
T/C [2]: 112 % of control
T/C [3]: 115 % of control

CCCCCCCC(=O)OOC(C)(C)C
T/C (dose: 60.0 mg/kg/injection, schedule: Q01DX005 (ip), vehicle: saline with Tween-80): 105 % of control
T/C (dose: 120.0 mg/kg/injection, schedule: Q01DX005 (ip), vehicle: saline with Tween-80): 105 % of control
T/C (dose: 240.0 mg/kg/injection, schedule: Q01DX005 (ip), vehicle: saline with Tween-80): 108 % of control

Cc1c(COC(=O)NC(C)C)c(COC(=O)NC(C)C)c2n1CS(=O)(=O)C2
T/C (dose: 25.0 mg/kg/injection, schedule: Q01DX005 (ip), vehicle: saline with Tween-80): 159 % of control
T/C [4]: 184 % of control and 188 % of control
T/C [5]: 218 % of control

CCCCCCCCC(=O)C(=O)c1ccc(O)cc1O
T/C [6]: 113 % of control
T/C (dose: 100.0 mg/kg/injection, schedule: Q01DX009 (ip), vehicle: Klucel (hydroxypropylcellulose) (HPC)): 113 % of control
T/C (dose: 200.0 mg/kg/injection, schedule: Q01DX009 (ip), vehicle: Klucel (hydroxypropylcellulose) (HPC)): 113 % of control
